{"source": "patent US20130130305A1", "about": "“IN[…] THAT INHIBIT IAA OR A YAP FAMILY” (priority 2010, published 2013)", "key": {"S. cerevisiae": {"tested_on": "S. cerevisiae", "assay": "IAA-associated growth inhibition phenotype in S. cerevisiae ald mutants", "assay_type": "cell-based, Saccharomyces cerevisiae", "description": "(§1) Analytical and phenotypic studies were performed in cognate deletion mutants, made in the Σ1278b background. A [^14C]Trp incorporation assay was performed to verify that phenotype observed in the library strain could be recapitulated in the newly constructed E1278b strain. Typically three independent transformants were isolated, confirmed by PCR and used for further studies. Standard culture conditions were used (Sherman et al., Laboratory Course Manual for Methods in Yeast Genetics, Cold Spring Harbor Laboratories Press, Cold Spring Harbor, N.Y., 1986) and analysis of IAA-associated phenotypes were performed as described earlier (Prusty et al., Proc. Natl. Acad. Sci. USA 101:4153-4157, 2004).\nThe ability of a fungus to perceive a small molecule signal that causes it to differentiate into an invasive form has important implications for host-pathogen interactions. To test the hypothesis that mutants with aberrant IAA accumulation also affect dimorphism, we examined diploid filamentation and haploid invasive growth in all ald single mutants and selected combinations of double mutants. […] We also tested a previously reported growth inhibition phenotype associated with exposure to IAA. […] However, these phenotypes are consistent with ald2Δald3Δ mutants producing more IAA than isogenic wild-type strains."}, "C. albicans [1]": {"tested_on": "C. albicans", "assay": "IAA-induced filamentation in C. albicans", "assay_type": "cell-based, Candida albicans", "description": "as §1\nIAA induces filamentation in C. albicans: The effects of the secondary metabolites identified in fungi appear to be largely species specific (Chen and Fink, Genes Dev. 20:1150-1161, 2006). […] To test whether the IAA effects could cross species barriers, we exposed wild-type C. albicans, a human pathogen, as well as attenuated mutants in the mitogen-activated protein (MAP) kinase and the cAMP-dependent protein kinase pathways to IAA. […] The cph1Δ/Δefg1Δ/Δ double mutant, which is nonfilamentous under standard laboratory conditions and avirulent in mice, filaments in the oral cavity of immunosuppressed piglets and when embedded in agar (Riggle et al., Infect. Immun. 67:3649-3652, 1999)."}, "C. albicans [2]": {"tested_on": "C. albicans", "assay": "Growth on media containing IAA (IAA sensitivity) of C. albicans CAP1 deletion mutants", "assay_type": "cell-based, Candida albicans", "description": "as §1\nTo test if other aspects of IAA regulation in S. cerevisiae were also conserved in C. albicans, we tested Cap1, the C. albicans homolog of Yap, for its sensitivity to IAA."}}, "data": [{"smiles": "O=C(O)Cc1c[nH]c2ccccc12", "note": "[IAA, indole-3-acetic acid]", "values": [{"measurement": "sensitivity to IAA (growth inhibition)", "setting": "S. cerevisiae; deletion of both ald2 and ald3 vs wild-type cells", "value": "increase in sensitivity to IAA"}, {"measurement": "sensitivity to IAA (growth inhibition)", "setting": "S. cerevisiae; single deletion of an ALD gene vs wild-type cells", "value": "did not affect IAA sensitivity"}, {"measurement": "filamentation", "setting": "C. albicans [1]; single mutants efg1Δ/Δ or cph1Δ/Δ, exposed to IAA", "value": "showed a robust filamentation"}, {"measurement": "filamentation", "setting": "C. albicans [1]; wild-type strains, treated with IAA vs untreated cells", "value": "filamented more"}, {"measurement": "growth on media containing IAA", "setting": "C. albicans [2]; heterozygous and homozygous CAP1 deletion mutants vs isogenic wild type", "value": "grew less well"}, {"measurement": "sensitivity to IAA", "setting": "C. albicans [2]; heterozygous cap1Δ/+ vs wild-type CAP1+/+ or homozygous cap1Δ/Δ", "value": "intermediate sensitivity"}]}]}
